Test results reported in ChEMBL document CHEMBL1201862, “PubChem BioAssay data set” (2004).
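Protocol summary: plate cells (96-well), add compound at 5 concentrations, incubate 48 h, interpolate endpoints linearly. GI50: concentration for 50% inhibition of growth.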 Calls of active or inactive are those of the source. Cut-off read from the data, not from the text of the source: active = GI50 up to about 1.1 µM and inactive = higher.

How the values were obtained:
Experiment in all cases: NCI anticancer screen, dose series, 48 h
CCRF-CEM = tested on: CCRF-CEM
COLO 205 = tested on: COLO 205
DU-145 = tested on: DU-145
HCT-116 = tested on: HCT-116
HCT-15 = tested on: HCT-15
IGROV-1 = tested on: IGROV-1
K562 = tested on: K562
LOX IMVI = tested on: LOX IMVI
MOLT-4 = tested on: MOLT-4
Malme-3M = tested on: Malme-3M
NCI-H23 = tested on: NCI-H23
OVCAR-4 = tested on: OVCAR-4
SK-MEL-2 = tested on: SK-MEL-2
SK-MEL-5 = tested on: SK-MEL-5
SN12C = tested on: SN12C
SR = tested on: SR
SW-620 = tested on: SW-620
U-251 = tested on: U-251
UACC-62 = tested on: UACC-62
HOP-92 = tested on: HOP-92

Measured: GI50

O=C1NC(c2cccc(OCc3ccccc3)c2)Nc2ccccc21 (configuration not stated)
active: CCRF-CEM 0.0479 µM | COLO 205 0.191 µM | DU-145 0.172 µM | HCT-116 0.0465 µM | IGROV-1 0.5 µM | K562 0.0189 µM | LOX IMVI 0.252 µM | MOLT-4 0.23 µM | Malme-3M 0.0897 µM | NCI-H23 0.424 µM | SK-MEL-5 0.0326 µM | SN12C 0.119 µM | SR < 0.0298 µM | SW-620 0.0938 µM | U-251 0.232 µM | UACC-62 0.495 µM
0.0805 µM: HCT-15
inactive: OVCAR-4 13.7 µM | SK-MEL-2 1.67 µM

CC(=N/NC(N)=S)/C(C)=N/NC(N)=S
inactive: CCRF-CEM > 100 µM | COLO 205 > 100 µM | DU-145 > 100 µM | HCT-116 > 100 µM | IGROV-1 > 100 µM | K562 > 100 µM | LOX IMVI > 100 µM | MOLT-4 > 100 µM | Malme-3M > 100 µM | NCI-H23 > 100 µM | SK-MEL-2 > 100 µM | SK-MEL-5 > 100 µM | SN12C > 100 µM | SR > 100 µM | SW-620 > 100 µM | UACC-62 > 100 µM
> 100 µM: HCT-15

Nc1ccccc1OCc1cc(=O)c(OCc2ccccc2)co1
24.2 µM: HCT-15
active: HOP-92 0.202 µM | SN12C 0.214 µM | UACC-62 0.469 µM
inactive: CCRF-CEM > 100 µM | COLO 205 12.6 µM | DU-145 47.8 µM | HCT-116 64.7 µM | K562 2.75 µM | LOX IMVI 27.7 µM | MOLT-4 > 100 µM | Malme-3M 34.6 µM | NCI-H23 39.6 µM | OVCAR-4 62.1 µM | SK-MEL-5 18.8 µM | SR > 100 µM | SW-620 80.7 µM | U-251 28.4 µM

COC(=O)C1CCOC(C)N1C(=O)OC(C)(C)C (configuration not stated)
> 100 µM: HCT-15
inactive: CCRF-CEM > 100 µM | COLO 205 > 100 µM | DU-145 > 100 µM | HCT-116 > 100 µM | IGROV-1 > 100 µM | K562 > 100 µM | LOX IMVI > 100 µM | MOLT-4 > 100 µM | Malme-3M > 100 µM | NCI-H23 > 100 µM | OVCAR-4 > 100 µM | SK-MEL-2 > 100 µM | SK-MEL-5 > 100 µM | SN12C > 100 µM | SR > 100 µM | SW-620 > 100 µM | U-251 > 100 µM | UACC-62 > 100 µM

CCN(CC)CCCC(C)Nc1cc(/C=C/c2ccc(Cl)cc2)nc2cc(N(C)C)ccc12 (configuration not stated)
active: K562 0.272 µM
inactive: CCRF-CEM 1.21 µM | DU-145 1.66 µM | HCT-116 1.24 µM | HOP-92 1.74 µM | IGROV-1 2 µM | MOLT-4 1.19 µM | NCI-H23 1.76 µM | SK-MEL-5 2.01 µM | SN12C 1.8 µM | SR 1.25 µM | SW-620 1.33 µM | U-251 1.64 µM | UACC-62 2.52 µM
1.67 µM: HCT-15

O=c1nc2ccc3sc4ccccc4c(=O)c3n2c(=O)[nH]1
> 100 µM: HCT-15
inactive: CCRF-CEM > 100 µM | COLO 205 > 100 µM | DU-145 > 100 µM | HCT-116 > 100 µM | IGROV-1 > 100 µM | K562 > 100 µM | LOX IMVI > 100 µM | MOLT-4 > 100 µM | Malme-3M > 100 µM | NCI-H23 > 100 µM | OVCAR-4 > 100 µM | SK-MEL-5 > 100 µM | SN12C > 100 µM | SR > 100 µM | SW-620 > 100 µM | U-251 > 100 µM

O=S(=O)(c1ccccc1)[C@@H]1[C@H]2C=C[C@](CS)(O2)[C@H]1S(=O)(=O)c1ccccc1
inactive: CCRF-CEM 2.46 µM | COLO 205 79.3 µM | DU-145 > 100 µM | HCT-116 13.3 µM | HOP-92 > 100 µM | IGROV-1 > 100 µM | K562 14.4 µM | LOX IMVI 44.6 µM | MOLT-4 16.5 µM | Malme-3M > 100 µM | NCI-H23 79.6 µM | OVCAR-4 42.1 µM | SK-MEL-5 > 100 µM | SN12C 38.2 µM | SR 25.6 µM | SW-620 12.4 µM | U-251 > 100 µM | UACC-62 > 100 µM
15.2 µM: HCT-15

CC(C)(C)OC(=O)N(CCCCNC(=O)c1ccccc1)CCCNC(=O)c1ccccc1
inactive: CCRF-CEM 72.1 µM | COLO 205 > 100 µM | DU-145 > 100 µM | HCT-116 > 100 µM | HOP-92 > 100 µM | IGROV-1 > 100 µM | K562 > 100 µM | MOLT-4 46.8 µM | NCI-H23 > 100 µM | OVCAR-4 > 100 µM | SK-MEL-2 > 100 µM | SK-MEL-5 > 100 µM | SN12C > 100 µM | SR 49.3 µM | SW-620 > 100 µM | U-251 > 100 µM | UACC-62 > 100 µM
> 100 µM: HCT-15
